This note sets out measurements from paper PMC5218480 (PLoS ONE, 2017).

This assay relates to MV-4-11 cells. Briefly: Gene expression microarray analysis (Affymetrix PrimeView) and GSEA. Format: cell-based, human. The arrangement: RFU PODN (11730768_x_at) / Fold change /veh PODN (11730768_x_at) / RFU LINC00158 (11744669_a_at) / Fold change /veh LINC00158 (11744669_a_at) / RFU DUSP10 (11751237_a_at) / Fold change /veh DUSP10 (11751237_a_at) / RFU ID3 (11757404_x_at) / Fold change /veh ID3 (11757404_x_at) / RFU PLEKHG5 (11737974_s_at) / Fold change /veh PLEKHG5 (11737974_s_at) / RFU LRRC4B (11730491_at) / Fold change /veh LRRC4B (11730491_at) / RFU GIMAP4 (11747438_a_at) / Fold change /veh GIMAP4 (11747438_a_at) / RFU KRT8 (11758183_x_at) / Fold change /veh KRT8 (11758183_x_at) / RFU CNN1 (11734310_a_at) / Fold change /veh CNN1 (11734310_a_at) / RFU VPS37D (11726825_at) / Fold change /veh VPS37D (11726825_at) / RFU C10orf10 (11716522_x_at) / Fold change /veh C10orf10 (11716522_x_at) / RFU KIR2DL2 /// KIR2DL4 /// KIR2DL5A /// KIR2DL5B /// KIR2DS1 /// KIR2DS2 /// KIR2DS3 /// KIR2DS4 /// KIR3DL3 /// KIR3DL3 /// KIR3DS1 (11738374_at) / Fold change /veh KIR2DL2 /// KIR2DL4 /// KIR2DL5A /// KIR2DL5B /// KIR2DS1 /// KIR2DS2 /// KIR2DS3 /// KIR2DS4 /// KIR3DL3 /// KIR3DL3 /// KIR3DS1 (11738374_at) / RFU C1QL1 (11718748_at) / Fold change /veh C1QL1 (11718748_at) / RFU TMPRSS4 (11747572_a_at) / Fold change /veh TMPRSS4 (11747572_a_at) / RFU HAMP (11756126_x_at) / Fold change /veh HAMP (11756126_x_at) / RFU RNFT2 (11725882_a_at) / Fold change /veh RNFT2 (11725882_a_at) / RFU NR4A2 (11747474_a_at) / Fold change /veh NR4A2 (11747474_a_at) / RFU ABCC12 (11746883_a_at) / Fold change /veh ABCC12 (11746883_a_at) / RFU TMEM136 (11760407_x_at) / Fold change /veh TMEM136 (11760407_x_at) / RFU CLDN22 /// WWC2 (11732394_at) / Fold change /veh CLDN22 /// WWC2 (11732394_at) / RFU HLA-DPB1 (11760878_x_at) / Fold change /veh HLA-DPB1 (11760878_x_at) / RFU SPINT1 (11716480_a_at) / Fold change /veh SPINT1 (11716480_a_at) / RFU GAP43 (11754022_s_at) / Fold change /veh GAP43 (11754022_s_at) / RFU A4GNT (11735810_at) / Fold change /veh A4GNT (11735810_at) / RFU PRB3 (11715151_x_at) / Fold change /veh PRB3 (11715151_x_at) / RFU TUBB4B (11761932_at) / Fold change /veh TUBB4B (11761932_at) / RFU CAPN14 (11732068_a_at) / Fold change /veh CAPN14 (11732068_a_at) / RFU TMCC2 (11721928_a_at) / Fold change /veh TMCC2 (11721928_a_at) / RFU IRGQ (11745062_a_at) / Fold change /veh IRGQ (11745062_a_at) / RFU FAM174B (11720279_a_at) / Fold change /veh FAM174B (11720279_a_at) / RFU TMPRSS4 (11748680_a_at) / Fold change /veh TMPRSS4 (11748680_a_at) / RFU FAM212B (11763350_a_at) / Fold change /veh FAM212B (11763350_a_at) / RFU PLEKHG5 (11743358_a_at) / Fold change /veh PLEKHG5 (11743358_a_at) / RFU ZSCAN30 (11745921_a_at) / Fold change /veh ZSCAN30 (11745921_a_at) / RFU CMKLR1 (11741424_a_at) / Fold change /veh CMKLR1 (11741424_a_at) / RFU LOC101060620 /// MAPK8IP1 (11723275_at) / Fold change /veh LOC101060620 /// MAPK8IP1 (11723275_at) / RFU SPTSSB (11747773_x_at) / Fold change /veh SPTSSB (11747773_x_at) / RFU PRSS12 (11739890_at) / Fold change /veh PRSS12 (11739890_at) / RFU BIN1 (11741810_x_at) / Fold change /veh BIN1 (11741810_x_at) / RFU WNT11 (11732464_a_at) / Fold change /veh WNT11 (11732464_a_at) / RFU C10orf10 (11716521_a_at) / Fold change /veh C10orf10 (11716521_a_at) / RFU C5orf56 (11738089_at) / Fold change /veh C5orf56 (11738089_at) / RFU CYB561 (11721691_x_at) / Fold change /veh CYB561 (11721691_x_at) / RFU ANKRD19P (11752326_a_at) / Fold change /veh ANKRD19P (11752326_a_at) / RFU OR2T12 /// OR2T33 /// OR2T8 (11738714_s_at) / Fold change /veh OR2T12 /// OR2T33 /// OR2T8 (11738714_s_at) / RFU VCAN (11748164_a_at) / Fold change /veh VCAN (11748164_a_at) / RFU JSRP1 (11732532_at) / Fold change /veh JSRP1 (11732532_at) / RFU KRTAP10-11 (11738290_x_at) / Fold change /veh KRTAP10-11 (11738290_x_at) / RFU MYO3A (11730013_a_at) / Fold change /veh MYO3A (11730013_a_at) / RFU EBF3 (11725865_a_at) / Fold change /veh EBF3 (11725865_a_at) / RFU CAMK2N1 (11719241_x_at) / Fold change /veh CAMK2N1 (11719241_x_at) / RFU C5orf56 (11738088_a_at) / Fold change /veh C5orf56 (11738088_a_at) / RFU OLFML3 (11715873_a_at) / Fold change /veh OLFML3 (11715873_a_at) / RFU LOC100653217 /// NTM (11731650_a_at) / Fold change /veh LOC100653217 /// NTM (11731650_a_at) / RFU MAPK11 (11762145_a_at) / Fold change /veh MAPK11 (11762145_a_at) / RFU FIZ1 (11724087_x_at) / Fold change /veh FIZ1 (11724087_x_at) / RFU OASL (11726364_x_at) / Fold change /veh OASL (11726364_x_at) / RFU SOX15 (11748057_x_at) / Fold change /veh SOX15 (11748057_x_at) / RFU CD79A (11719716_a_at) / Fold change /veh CD79A (11719716_a_at) / RFU HIST1H1D (11736915_at) / Fold change /veh HIST1H1D (11736915_at) / RFU CASKIN2 (11723855_a_at) / Fold change /veh CASKIN2 (11723855_a_at) / RFU LOC730098 (11760151_x_at) / Fold change /veh LOC730098 (11760151_x_at) / RFU OR4N2 (11742367_at) / Fold change /veh OR4N2 (11742367_at) / RFU PRRT2 (11749266_a_at) / Fold change /veh PRRT2 (11749266_a_at) / RFU SNX32 (11753110_a_at) / Fold change /veh SNX32 (11753110_a_at) / RFU CDHR5 (11726645_a_at) / Fold change /veh CDHR5 (11726645_a_at) / RFU RCAN1 (11760418_a_at) / Fold change /veh RCAN1 (11760418_a_at) / RFU FAM167A (11723789_a_at) / Fold change /veh FAM167A (11723789_a_at) / RFU FAM26E (11764081_at) / Fold change /veh FAM26E (11764081_at) / RFU ISYNA1 (11749810_s_at) / Fold change /veh ISYNA1 (11749810_s_at) / RFU ACY1 (11761880_at) / Fold change /veh ACY1 (11761880_at) / RFU 11764098_at / Fold change /veh 11764098_at / RFU SAMD14 (11745864_x_at) / Fold change /veh SAMD14 (11745864_x_at) / RFU NPB (11741838_a_at) / Fold change /veh NPB (11741838_a_at) / RFU TMPRSS6 (11731388_a_at) / Fold change /veh TMPRSS6 (11731388_a_at) / RFU KRTAP10-2 (11738614_at) / Fold change /veh KRTAP10-2 (11738614_at) / RFU ARHGAP8 /// PRR5-ARHGAP8 (11727945_x_at) / Fold change /veh ARHGAP8 /// PRR5-ARHGAP8 (11727945_x_at) / RFU KRTAP5-7 /// NADSYN1 (11734609_at) / Fold change /veh KRTAP5-7 /// NADSYN1 (11734609_at) / RFU RASL12 (11751679_a_at) / Fold change /veh RASL12 (11751679_a_at) / RFU CDKN2B (11736163_a_at) / Fold change /veh CDKN2B (11736163_a_at) / RFU PRF1 (11729649_at) / Fold change /veh PRF1 (11729649_at) / RFU, ZNF638 /// ZNF638-IT1 / Fold change vs veh, ZNF638 /// ZNF638-IT1 / RFU, PANK3 / Fold change vs veh, PANK3 / RFU, SH3YL1 / Fold change vs veh, SH3YL1 / RFU, ZEB2 / Fold change vs veh, ZEB2 / RFU, NRIP1 / Fold change vs veh, NRIP1 / RFU, PTTG1IP / Fold change vs veh, PTTG1IP / RFU, CAPN2 / Fold change vs veh, CAPN2 / RFU, MED14 / Fold change vs veh, MED14 / RFU, SNORA58 / Fold change vs veh, SNORA58 / RFU, C1orf63 / Fold change vs veh, C1orf63 / RFU, LRRFIP1 / Fold change vs veh, LRRFIP1 / RFU, NDUFAF7 / Fold change vs veh, NDUFAF7 / RFU, SLC12A2 / Fold change vs veh, SLC12A2 / RFU, IBTK / Fold change vs veh, IBTK / RFU, ESF1 / Fold change vs veh, ESF1 / Fold change vs veh, TMEM50B / RFU, TAOK1 / Fold change vs veh, TAOK1 / RFU, ACBD3 / Fold change vs veh, ACBD3 / RFU, TMA16 / Fold change vs veh, TMA16 / RFU, RWDD3 / Fold change vs veh, RWDD3 / RFU, BCAT1 / Fold change vs veh, BCAT1 / RFU, EDEM3 / Fold change vs veh, EDEM3 / RFU, TMEM33 / Fold change vs veh, TMEM33 / RFU, WDR75 / Fold change vs veh, WDR75 / RFU, AHCTF1 / Fold change vs veh, AHCTF1 / RFU, TFRC / Fold change vs veh, TFRC / RFU, ZDHHC17 / Fold change vs veh, ZDHHC17 / RFU, NOM1 / Fold change vs veh, NOM1 / RFU, ARL8B / Fold change vs veh, ARL8B / RFU, ZBTB11 / Fold change vs veh, ZBTB11 / RFU, TAMM41 / Fold change vs veh, TAMM41 / RFU, KIAA1704 /// LOC100996395 / Fold change vs veh, KIAA1704 /// LOC100996395 / RFU, ING1 / Fold change vs veh, ING1 / RFU, TRMT61B / Fold change vs veh, TRMT61B / RFU, FUBP3 / Fold change vs veh, FUBP3 / RFU, TP53 / Fold change vs veh, TP53 / RFU, TNKS2 / Fold change vs veh, TNKS2 / RFU, ZFP14 / Fold change vs veh, ZFP14 / RFU, ACTR2 / Fold change vs veh, ACTR2 / RFU, PPP3R1 / Fold change vs veh, PPP3R1 / RFU, PIK3R1 / Fold change vs veh, PIK3R1 / RFU, HNRNPA1 / Fold change vs veh, HNRNPA1 / RFU, RNF170 / Fold change vs veh, RNF170 / RFU, ZNF28 / Fold change vs veh, ZNF28 / RFU, RNGTT / Fold change vs veh, RNGTT / RFU, OGT / Fold change vs veh, OGT / RFU, BRD1 / Fold change vs veh, BRD1 / RFU, MARS / Fold change vs veh, MARS / RFU, ZNF655 / Fold change vs veh, ZNF655 / RFU, FAHD1 / Fold change vs veh, FAHD1 / RFU, BDP1 / Fold change vs veh, BDP1 / RFU, LRRCC1 / Fold change vs veh, LRRCC1 / RFU, ARID1A / Fold change vs veh, ARID1A / RFU, ZNF146 / Fold change vs veh, ZNF146 / RFU, ZNF330 / Fold change vs veh, ZNF330 / RFU, GPN3 / Fold change vs veh, GPN3 / RFU, C9orf123 / Fold change vs veh, C9orf123 / RFU, N4BP2L2 / Fold change vs veh, N4BP2L2 / RFU, ARFIP1 / Fold change vs veh, ARFIP1 / RFU, FAM179B / Fold change vs veh, FAM179B / RFU, BCL10 / Fold change vs veh, BCL10 / RFU, UHRF1BP1L / Fold change vs veh, UHRF1BP1L / RFU, BET1 / Fold change vs veh, BET1 / RFU, CNOT2 / Fold change vs veh, CNOT2 / RFU, ZNF268 / Fold change vs veh, ZNF268 / Fold change vs veh, ZNF507 / RFU, DGCR2 / Fold change vs veh, DGCR2 / RFU, WDSUB1 / Fold change vs veh, WDSUB1 / Fold change vs veh, HSP90B1 /// MIR3652 / RFU, ADSS / Fold change vs veh, ADSS / RFU, GK / Fold change vs veh, GK / RFU, ZNF148 / Fold change vs veh, ZNF148 / RFU, TAF9 / Fold change vs veh, TAF9 / RFU, SLC1A5 / Fold change vs veh, SLC1A5 / RFU, SLMO2 / Fold change vs veh, SLMO2 / RFU, ABCC4 / Fold change vs veh, ABCC4 / RFU, LOC101060439 /// RAP1B / Fold change vs veh, LOC101060439 /// RAP1B / RFU, RFX7 / Fold change vs veh, RFX7 / RFU, GTPBP10 / Fold change vs veh, GTPBP10 / RFU, CNEP1R1 / Fold change vs veh, CNEP1R1 / RFU, BIVM-ERCC5 /// ERCC5 / Fold change vs veh, BIVM-ERCC5 /// ERCC5 / RFU, ILF3 / Fold change vs veh, ILF3 / RFU 11762660_at / Fold change /veh 11762660_at / RFU VCAN (11757783_s_at) / Fold change /veh VCAN (11757783_s_at) / RFU DDX43 (11728927_at) / Fold change /veh DDX43 (11728927_at) / RFU KRT8 (11758188_x_at) / Fold change /veh KRT8 (11758188_x_at) / RFU NKD1 (11759106_at) / Fold change /veh NKD1 (11759106_at) / RFU SRD5A1 (11742802_a_at) / Fold change /veh SRD5A1 (11742802_a_at) / RFU TPSAB1 /// TPSB2 (11721975_s_at) / Fold change /veh TPSAB1 /// TPSB2 (11721975_s_at) / RFU GSTM3 (11746129_a_at) / Fold change /veh GSTM3 (11746129_a_at) / RFU IL23R (11737362_x_at) / Fold change /veh IL23R (11737362_x_at) / RFU TMEM51 (11727254_a_at) / Fold change /veh TMEM51 (11727254_a_at) / RFU PIWIL2 (11732686_x_at) / Fold change /veh PIWIL2 (11732686_x_at) / RFU ORM1 (11744905_x_at) / Fold change /veh ORM1 (11744905_x_at) / RFU CCDC152 (11743942_at) / Fold change /veh CCDC152 (11743942_at) / RFU ECM1 (11717891_a_at) / Fold change /veh ECM1 (11717891_a_at) / RFU IL23R (11748794_a_at) / Fold change /veh IL23R (11748794_a_at) / RFU TNFAIP8L3 (11732012_x_at) / Fold change /veh TNFAIP8L3 (11732012_x_at) / RFU MBOAT4 (11741988_at) / Fold change /veh MBOAT4 (11741988_at) / RFU 11764193_at / Fold change /veh 11764193_at / RFU TMEM53 (11763286_at) / Fold change /veh TMEM53 (11763286_at) / RFU MAGEB2 (11727129_at) / Fold change /veh MAGEB2 (11727129_at) / RFU TMEM200A (11744735_a_at) / Fold change /veh TMEM200A (11744735_a_at) / RFU CCDC152 (11751479_a_at) / Fold change /veh CCDC152 (11751479_a_at) / RFU FAM211A (11726209_a_at) / Fold change /veh FAM211A (11726209_a_at) / RFU RGS16 (11746705_a_at) / Fold change /veh RGS16 (11746705_a_at) / RFU VCAN (11755009_s_at) / Fold change /veh VCAN (11755009_s_at) / RFU RHOB (11743442_s_at) / Fold change /veh RHOB (11743442_s_at) / RFU RGS16 (11720943_a_at) / Fold change /veh RGS16 (11720943_a_at) / RFU RGS16 (11720944_at) / Fold change /veh RGS16 (11720944_at) / RFU, VPS4B / Fold change vs veh, VPS4B / RFU, CREB1 / Fold change vs veh, CREB1 / RFU, DNAJC13 / Fold change vs veh, DNAJC13 / RFU, GNAQ / Fold change vs veh, GNAQ / RFU, CDK5R1 / Fold change vs veh, CDK5R1 / RFU, ZRANB3 / Fold change vs veh, ZRANB3 / RFU, CUL4A / Fold change vs veh, CUL4A / RFU, CCNY / Fold change vs veh, CCNY / RFU, UFL1 / Fold change vs veh, UFL1 / RFU, COG3 / Fold change vs veh, COG3 / RFU, DIAPH2 / Fold change vs veh, DIAPH2 / RFU, SKA2 / Fold change vs veh, SKA2 / RFU, AFF3 / Fold change vs veh, AFF3 / RFU, LMF1 / Fold change vs veh, LMF1 / RFU, IPO11 / Fold change vs veh, IPO11 / RFU, DFFB / Fold change vs veh, DFFB / RFU, FOXP1 / Fold change vs veh, FOXP1 / RFU, CARD8 / Fold change vs veh, CARD8 / RFU, STRN3 / Fold change vs veh, STRN3 / RFU, ADK / Fold change vs veh, ADK / RFU, RASSF2 / Fold change vs veh, RASSF2 / RFU, WIPF1 / Fold change vs veh, WIPF1 / RFU, LARP1B / Fold change vs veh, LARP1B / RFU, RASA1 / Fold change vs veh, RASA1 / RFU, RB1 / Fold change vs veh, RB1 / RFU, PPFIA1 / Fold change vs veh, PPFIA1 / RFU, MAT2A / Fold change vs veh, MAT2A / RFU, CCT5 / Fold change vs veh, CCT5 / RFU, WDR92 / Fold change vs veh, WDR92 / RFU, CUX1 / Fold change vs veh, CUX1 / RFU, TTC7A / Fold change vs veh, TTC7A / RFU, TMEM135 / Fold change vs veh, TMEM135 / RFU, DEPTOR / Fold change vs veh, DEPTOR / RFU, CPM / Fold change vs veh, CPM / RFU, DNAJB6 / Fold change vs veh, DNAJB6 / RFU, CACNA2D3 / Fold change vs veh, CACNA2D3 / RFU, DTX4 / Fold change vs veh, DTX4 / RFU, TFCP2 / Fold change vs veh, TFCP2 / RFU, GMCL1 /// GMCL1P1 / Fold change vs veh, GMCL1 /// GMCL1P1 / RFU, AEBP2 / Fold change vs veh, AEBP2 / RFU, SNHG1 /// SNORD22 /// SNORD25 /// SNORD26 /// SNORD27 /// SNORD28 /// SNORD29 /// SNORD31 / Fold change vs veh, SNHG1 /// SNORD22 /// SNORD25 /// SNORD26 /// SNORD27 /// SNORD28 /// SNORD29 /// SNORD31 / Fold change (Aza/veh), C12orf56 (ProbeSet 11735607_a_at) / Fold change (ACY-1035/veh), C12orf56 (ProbeSet 11735607_a_at) / Fold change (Aza/veh), FGFR1OP (ProbeSet 11751329_s_at) / Fold change (ACY-1035/veh), FGFR1OP (ProbeSet 11751329_s_at) / Fold change (Aza/veh), VPS36 (ProbeSet 11739960_a_at) / Fold change (ACY-1035/veh), VPS36 (ProbeSet 11739960_a_at) / RFU SYPL1 (11715823_x_at) / Fold change /veh SYPL1 (11715823_x_at) / RFU IGFBP7 (11715501_s_at) / Fold change /veh IGFBP7 (11715501_s_at) / RFU REEP3 (11722064_at) / Fold change /veh REEP3 (11722064_at) / RFU IGLL1 (11728026_x_at) / Fold change /veh IGLL1 (11728026_x_at): dose or concentration left out as unconfirmed. Conditions: ProbeSet 11734937_a_at; LIST B.

Take `Nc1ccc(-c2cccs2)cc1NC(=O)c1ccc2c(c1)cc(C1CC1)n2CCN1CCOCC1` [ACY-1035]: the “RFU, CNOT2” value was determined as 798.97 RFU.
